Test results taken from patent publication US11589575B2, “Injectable preserving medium for preserving cells from placental blood, from bone marrow and from peripheral blood” (ETABLISSEMENT FRANCAIS DU SANG, priority 2015, dated 2023).
Entries after “also recorded” stand apart in the source; their conditions may differ.

Test system: placental blood CD34+ cells amplified ex vivo
Test: Preservation at +4° C. of ex vivo amplified placental blood CD34+ cells (TNC viability and clonogenic CFC/CFU yield)
Format: cell-based, human
Settings: for preserving of the functionality (clonogenicity) of amplified cells: cells stored at +4° C.
Procedure: The cells, after ex vivo expansion, are more fragile than the original CD34+ cells, and the maintaining thereof is most critical at +4° C. (Duchez et al, 2013, supra).
Throughout all the studies leading to the formulation of the biological preserving medium, the assays were conducted on placental blood CD34+ cells derived from a bank with storage at −196° C. Each assay was performed on one 1 or more samples.
The placental blood CD34+ cells were isolated with an immunomagnetic system, then frozen and banked at −196° C.
After thawing, the placental blood CD34+ cells (20000/ml) were placed in culture in HP01 medium in the presence of SCF (Stem Cell Factor) 100 ng/ml, Flt3 (FMS-like tyrosine kinase-3) 100 ng/ml, G-CSF (Granulocyte Colony Stimulating Factor) 10 ng/ml, and thrombopoietin (TPO) 20 ng/ml at 37° C., 5% CO2 and 85% humidity. At mid-culture, the addition was made of HP01 culture medium with the cytokines (1/5 dilution) and culture continued up to 9 to 12 days (generally 10 days).
After culture, 2.5 ml of cell suspension were transferred to 2.5 ml gas-impermeable polypropylene tubes and centrifuged at 430 g for 10 minutes at 18° C. The supernatant was fully removed (with about 50 μl of supernatant remaining on the cell residue). Then, 2.45 ml of preserving medium to be assayed (at ambient temperature) were added to the tube and the tube sealed with the stopper; the cells being replaced in suspension with successive upturning movements. The samples were left at ambient temperature for 1 to 3 hours. Finally, the tubes were placed flat at +4° C. for times generally of 48 h to 72 h. Assays were also conducted in gas-permeable PVC pouches for comparative studies and in gas-impermeable EVA pouches.
Analyses were performed on the amplified cells: counting and viability of TNCs (Total Nucleated Cells), clonogenic assays, sometimes with counting and viability of CD34+ cells. After the period at +4° C. for the defined times (48 h and 72 h), the cell samples were assayed: counting and viability of TNCs and clonogenic assays (at times also counting and viability of CD34+ cells).
The quantity of viable total nucleated cells remaining after storage at 4° C. was compared with the quantity of viable total nucleated cells at the end of culture, to obtain a recovery yield of viable cells. Similarly, the yield of CFCs (Colony Forming Cells) was calculated. The values obtained were used to evaluate the advantage of one or more compounds in the formulation and to identify the optimal concentration of these compounds. The values were compared with those obtained with the HP02 preserving medium (Duchez et al, 2013, supra).

Compound | preserving of the functionality (clonogenicity) of amplified cells | action throughout the assays on preservation of amplified cells (readout not further specified) (stored at +4° C.)
Cc1c(C)c2c(c(C)c1O)CC[C@@](C)(CCC[C@H](C)CCC[C@H](C)CCCC(C)C)O2 [vitamin E, Alpha-tocopherol] | the greatest action; also recorded: the most important action | effect close to or identical to the effect of Cernevit®
O=C1O[C@H]([C@@H](O)CO)C(O)=C1O [vitamin C, Ascorbic acid] | lesser action | 
CC1=C(/C=C/C(C)=C/C=C/C(C)=C/CO)C(C)(C)CCC1 [vitamin A, Retinol] | lesser action | 
